The test system of data set [1] is green peach aphid (Myzus persicae). Briefly: Myzus test (MYZUPE spray treatment), Use Example 4. The class given is in vivo. To be noted: 144 h, read-out: activity in %. The procedure, abridged: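 Compound was formulated in acetone/dimethylformamide with alkylaryl polyglycol ether emulsifier and diluted in emulsifier-containing water. It was sprayed onto Chinese cabbage leaf discs infested with all stages of Myzus persicae. Mortality (%) was scored after 6 days, where 100% means all aphids killed.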

In data set [2] the test system is larvae of the mustard beetle (Phaedon cochleariae). Nature of the data set: Phaedon test (PHAECO spray treatment). The class given is in vivo. To be noted: 168 h, read-out: activity in %. The procedure, abridged: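 Mortality of mustard beetle larvae, expressed as percent killed (100% all, 0% none), assessed 7 days after spraying. Spray liquor made from compound in acetone plus dimethylformamide with alkylaryl polyglycol ether, diluted in emulsifier-containing water to the desired concentration.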

In data set [3] the test system is caterpillars of the armyworm (Spodoptera frugiperda). Nature of the data set: Spodoptera frugiperda test (SPODFR spray treatment). The note with it: 168 h, read-out: activity in %. The data set is classed as in vivo. Put shortly:
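Percent caterpillar mortality read 7 days after infestation (0% none killed, 100% all killed). Treatment was a spray of the acetone/DMF/emulsifier formulation, water-diluted to test concentration, onto Zea mays leaf discs, allowed to dry before larvae were added.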

Data set [4] is described as follows: log P determination by HPLC on reversed-phase columns (EEC Directive 79/831 Annex V.A8). The class given is physicochemical. The note with it: pH 2.7. Put shortly:
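Calibration used unbranched alkan-2-ones of 3 to 16 carbons with known log P, values interpolated linearly from retention times between neighbouring standards. Acidic-range LC-MS run at pH 2.7, eluents aqueous and acetonitrile formic acid 0.1%, linear gradient 10% to 95% acetonitrile.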

The mark [5] stands for this setting: HPLC on reversed-phase columns (C 18), EEC Directive 79/831 Annex V.A8, read-out: logP.

Where two headings read alike, the source gives them in different places.

Take `CSC[C@H](C)NC(=O)c1cc(I)cc(C)c1NC(=O)c1cc(Cn2cc(C(F)(F)C(F)(F)F)nn2)nn1-c1ncccc1Cl` [Example 316]: the pest or weed control at 100 g/ha in data set [1] (100 g/ha, after 6 days) came to 100%; in data set [2] (100 g/ha, after 7 days), 100%; in data set [3] (100 g/ha, after 7 days), 100%. The molecule further returned a chromatographic logP in data set [4] of 3.91.

With `CNC(=O)c1cc(C#N)cc(C)c1NC(=O)c1cc(Cn2cc(C(F)(F)C(F)(F)F)nn2)nn1-c1ncccc1Cl` [Example 317], the pest or weed control at 100 g/ha in data set [1] (100 g/ha, after 6 days) came out at 100%; in data set [2] (100 g/ha, after 7 days), 100%; in data set [3] (100 g/ha, after 7 days) it was 100%. The chromatographic logP in data set [4] is 2.68.

On to `Cc1cc(C#N)cc(C(=O)NC2CC2)c1NC(=O)c1cc(Cn2cc(C(F)(F)C(F)(F)F)nn2)nn1-c1ncccc1Cl` [Example 318], for which the pest or weed control at 100 g/ha came out at 100% in data set [1] (100 g/ha, after 6 days); 100% in data set [2] (100 g/ha, after 7 days); 100% in data set [3] (100 g/ha, after 7 days). The same molecule had a chromatographic logP in data set [4] of 2.89.

In the case of `CCNC(=O)c1cc(C#N)cc(C)c1NC(=O)c1cc(Cn2cc(C(F)(F)C(F)(F)F)nn2)nn1-c1ncccc1Cl` [Example 319], the pest or weed control at 100 g/ha in data set [1] (100 g/ha, after 6 days) was 100%; in data set [2] (100 g/ha, after 7 days), 100%; in data set [3] (100 g/ha, after 7 days), 100%. This molecule showed a chromatographic logP in data set [4] of 2.89.

Regarding `Cc1cc(C#N)cc(C(=O)NC(C)C)c1NC(=O)c1cc(Cn2cc(C(F)(F)C(F)(F)F)nn2)nn1-c1ncccc1Cl` [Example 320], the pest or weed control at 100 g/ha is 100% in data set [1] (100 g/ha, after 6 days); 100% in data set [2] (100 g/ha, after 7 days); 100% in data set [3] (100 g/ha, after 7 days). In data set [4], this molecule yielded a chromatographic logP of 3.11.

With `CSC[C@H](C)NC(=O)c1cc(Cl)cc(C)c1NC(=O)c1cc(Cn2cc(C(F)(F)C(F)(F)C(F)(F)F)nn2)nn1-c1ncccc1Cl` [Example 324], the pest or weed control at 100 g/ha in data set [1], in data set [2] and in data set [3] was 100% throughout. The chromatographic logP in data set [4] (setting [5]) stood at 3.99.

For `Cc1cc(Cl)cc(C(=O)NCC2CC2)c1NC(=O)c1cc(Cn2cc(C(F)(F)C(F)(F)C(F)(F)F)nn2)nn1-c1ncccc1Cl` [Example 325], the pest or weed control at 100 g/ha in data set [1], in data set [2] and in data set [3] was 100% throughout. For the same molecule, in data set [4] (setting [5]), the chromatographic logP worked out at 3.9.

Regarding `Cc1cc(Cl)cc(C(=O)NC2CC2)c1NC(=O)c1cc(Cn2cc(C(F)(F)C(F)(F)C(F)(F)F)nn2)nn1-c1ncccc1Cl` [Example 326], the pest or weed control at 100 g/ha in data set [1], in data set [2] and in data set [3] was 100% in each case. Further, the chromatographic logP in data set [4] (setting [5]) amounted to 3.57.

On to `Cc1cc(Cl)cc(C(=O)NC(C)C2CC2)c1NC(=O)c1cc(Cn2cc(C(F)(F)C(F)(F)C(F)(F)F)nn2)nn1-c1ncccc1Cl` (stereo not shown) [Example 327], for which the pest or weed control at 100 g/ha in data set [1], in data set [2] and in data set [3] was 100% each time. For the same molecule, in data set [4] (setting [5]), the chromatographic logP was determined as 4.15.

Turning to `CNC(=O)c1cc(Cl)cc(C)c1NC(=O)c1cc(Cn2cc(C(F)(F)C(F)(F)C(F)(F)F)nn2)nn1-c1ncccc1Cl` [Example 328], the pest or weed control at 100 g/ha in data set [1], in data set [2] and in data set [3] was 100% throughout. For the same molecule, the chromatographic logP in data set [4] (setting [5]) is 3.38.

For the molecule `Cc1cc(C#N)cc(C(=O)NC(C)C)c1NC(=O)c1cc(Cn2cc(C(F)(F)C(F)(F)C(F)(F)F)nn2)nn1-c1ncccc1Cl` [Example 329], the pest or weed control at 100 g/ha in data set [1], in data set [2] and in data set [3] was 100% in each case. Further, the chromatographic logP in data set [4] (setting [5]) was 3.42.

As for `Cc1cc(C#N)cc(C(=O)NC(C)C2CC2)c1NC(=O)c1cc(Cn2cc(C(F)(F)C(F)(F)C(F)(F)F)nn2)nn1-c1ncccc1Cl` (stereo not shown) [Example 331], the pest or weed control at 100 g/ha in data set [1], in data set [2] and in data set [3] was 100% throughout. For the same molecule, in data set [4] (setting [5]), the chromatographic logP stood at 3.71.

`Cc1cc(I)cc(C(N)=O)c1NC(=O)c1cc(Cn2cc(C(F)(F)C(F)(F)C(F)(F)F)nn2)nn1-c1ncccc1Cl` [Example 332]: the pest or weed control at 100 g/ha in data set [1], in data set [2] and in data set [3] was 100% throughout. Also, in data set [4] (setting [5]), the chromatographic logP came to 3.35.

For the molecule `CNC(=O)c1cc(I)cc(C)c1NC(=O)c1cc(Cn2cc(C(F)(F)C(F)(F)C(F)(F)F)nn2)nn1-c1ncccc1Cl` [Example 337], the pest or weed control at 100 g/ha in data set [1], in data set [2] and in data set [3] was 100% throughout. Also, the chromatographic logP in data set [4] (setting [5]) was 3.59.

For the molecule `Cc1cc(Cl)cc(C(N)=O)c1NC(=O)c1cc(Cn2cc(C(F)(F)C(F)(F)C(F)(F)F)nn2)nn1-c1ncccc1Cl` [Example 338], the pest or weed control at 100 g/ha in data set [1], in data set [2] and in data set [3] was 100% each time. In addition, in data set [4] (setting [5]), the chromatographic logP was 3.13.

Consider `Cc1cc(Cl)cc(C(=O)NC(C)(C)C)c1NC(=O)c1cc(Cn2cc(C(F)(F)C(F)(F)C(F)(F)F)nn2)nn1-c1ncccc1Cl` [Example 339], for which the pest or weed control at 100 g/ha in data set [1] was found to be 90%; in data set [2], 100%; in data set [3], 100%. Moreover, in data set [4] (setting [5]), the chromatographic logP amounted to 4.21.

In the case of `Cc1cc(Cl)cc(C(=O)NC(C)C)c1NC(=O)c1cc(Cn2cc(C(F)(F)C(F)(F)C(F)(F)F)nn2)nn1-c1ncccc1Cl` [Example 340], the pest or weed control at 100 g/ha in data set [1], in data set [2] and in data set [3] was 100% each time. Moreover, the chromatographic logP in data set [4] (setting [5]) is 3.8.

`CCNC(=O)c1cc(Cl)cc(C)c1NC(=O)c1cc(Cn2cc(C(F)(F)C(F)(F)C(F)(F)F)nn2)nn1-c1ncccc1Cl` [Example 341]: the pest or weed control at 100 g/ha in data set [1], in data set [2] and in data set [3] was 100% throughout. For the same molecule, the chromatographic logP in data set [4] (setting [5]) was 3.62.

For `Cc1cc(C#N)cc(C(=O)NC2CC2)c1NC(=O)c1cc(Cn2cc(C(F)(F)C(F)(F)C(F)(F)F)nn2)nn1-c1ncccc1Cl` [Example 342], the pest or weed control at 100 g/ha in data set [1], in data set [2] and in data set [3] was 100% each time. Also, in data set [4] (setting [5]), the chromatographic logP was determined as 3.22.

For `CNC(=O)c1cc(C#N)cc(C)c1NC(=O)c1cc(Cn2cc(C(F)(F)C(F)(F)C(F)(F)F)nn2)nn1-c1ncccc1Cl` [Example 343], the pest or weed control at 100 g/ha in data set [1], in data set [2] and in data set [3] was 100% throughout. Further, in data set [4] (setting [5]), the chromatographic logP was determined as 3.04.

With `CSC[C@H](C)NC(=O)c1cc(I)cc(C)c1NC(=O)c1cc(Cn2ncc(C(F)(F)C(F)(F)F)n2)nn1-c1ncccc1Cl` [Example 344], the pest or weed control at 100 g/ha in data set [1] (100 g/ha, after 6 days) stood at 100%; in data set [2] (100 g/ha, after 7 days), 100%; in data set [3] (100 g/ha, after 7 days), 100%. In data set [4], this molecule showed a chromatographic logP of 4.34.

In the case of `CSC[C@H](C)NC(=O)c1cc(Cl)cc(C)c1NC(=O)c1cc(Cn2ncc(C(F)(F)C(F)(F)F)n2)nn1-c1ncccc1Cl` [Example 348], the pest or weed control at 100 g/ha worked out at 80% in data set [1] (100 g/ha, after 6 days); 100% in data set [2] (100 g/ha, after 7 days); 100% in data set [3] (100 g/ha, after 7 days). The chromatographic logP in data set [4] is 4.1.

The record behind these values is patent publication US8536202B2, “Triazole-substituted anthranilamides as pesticides” (Bayer Cropscience AG, priority 2010, dated 2013).
